Here are results for three compounds from ChEMBL document CHEMBL1125867 (J Med Chem, 1991).

Broadly, the IC50 is the midpoint of a concentration-inhibition curve.

In experiment [1] the target is T1, Dihydrofolate reductase (Homo sapiens, UniProt P00374).
T1 sequence (P00374 whole entry): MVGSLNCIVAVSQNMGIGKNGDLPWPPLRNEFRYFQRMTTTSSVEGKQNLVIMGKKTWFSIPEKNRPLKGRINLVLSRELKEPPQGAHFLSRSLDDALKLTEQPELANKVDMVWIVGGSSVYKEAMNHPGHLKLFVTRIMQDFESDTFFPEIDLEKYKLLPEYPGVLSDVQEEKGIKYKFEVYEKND
Description: Compound was evaluated for Dihydrofolate Reductase (DHFR) inhibition

The nature of experiment [2]: Compound was evaluated for cell growth inhibition of human (WI-L2) leukemic cells. Particulars: WIL2. The experiment is classed as functional, cell-based.

In the case of `CN(Cc1cnc2ncnc(N)c2n1)c1ccc(C(=O)NC(CCC(=O)O)C(=O)O)cc1` (stereo not drawn), the IC50 in experiment [1] worked out at 6 µM. This lies in the single-digit micromolar range.

With `Nc1nc(N)c2nc(CNc3ccc(C(=O)N[C@@H](CCC(=O)O)C(=O)O)cc3)cnc2n1` [AMINOPTERIN], the concentration for half-maximal inhibition (IC50) in experiment [2] amounted to 0.007 µM. In other words, the single-digit nanomolar range. With `Cc1nc(N)c2nc(CN(C)c3ccc(C(=O)NC(CCC(=O)O)C(=O)O)cc3)cnc2n1` (stereo not drawn), in experiment [1], the half-inhibitory concentration (IC50) is more than 20 µM.
